Source: PubChem BioAssay AID256 (DTP/NCI, 2004)
Values joined by “and” are separate entries in the source; they are usually repeats but may differ in a detail not shown here. Equal entries are not always repeated. Inconclusive results and toxic doses are left out. How the source made its calls: active means survival T/C of 150% or more; inactive means T/C below 125% in these data.

System: CD2F1 mice, L1210 leukemia ip, survival T/C
Assay: NCI In Vivo Anticancer Drug Screen. Data for tumor model L1210 Leukemia (intraperitoneal) in CD2F1 (CDF1) mice
Details: higher = longer survival
Summary of the method: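 Compound-dosed mice with transplantable tumor versus matched vehicle controls; endpoint ratio T/C reported.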

[1] = endpoint: mean survival time, dose: 100.0 mg/kg/injection, schedule: Q04DX003 (ip), vehicle: saline with Tween-80
[2] = endpoint: mean survival time, dose: 200.0 mg/kg/injection, schedule: Q04DX003 (ip), vehicle: saline with Tween-80
[3] = endpoint: mean survival time, dose: 400.0 mg/kg/injection, schedule: Q04DX003 (ip), vehicle: saline with Tween-80
[4] = endpoint: mean survival time, dose: 100.0 mg/kg/injection, schedule: Q04DX002 (ip), vehicle: saline with Tween-80
[5] = endpoint: mean survival time, dose: 50.0 mg/kg/injection, schedule: Q01DX009 (ip), vehicle: saline with Tween-80
[6] = endpoint: mean survival time, dose: 100.0 mg/kg/injection, schedule: Q01DX009 (ip), vehicle: saline with Tween-80
[7] = endpoint: mean survival time, dose: 200.0 mg/kg/injection, schedule: Q01DX009 (ip), vehicle: saline with Tween-80
[8] = endpoint: mean survival time, dose: 400.0 mg/kg/injection, schedule: Q01DX009 (ip), vehicle: saline with Tween-80
[9] = endpoint: mean survival time, dose: 100.0 mg/kg/injection, schedule: Q01DX001 (ip), vehicle: saline with Tween-80
[10] = endpoint: mean survival time, dose: 400.0 mg/kg/injection, schedule: Q01DX001 (ip), vehicle: saline with Tween-80
[11] = endpoint: mean survival time, dose: 200.0 mg/kg/injection, schedule: Q01DX001 (ip), vehicle: saline with Tween-80

Measured: T/C

CCC[CH2][Sn-]([CH2]CCC)([CH2]CCC)[O]C(=O)C(C)C
inactive: endpoint: mean survival time, dose: 375.0 micrograms/kg/injection, schedule: Q01DX009 (ip), vehicle: saline 93 % of control | endpoint: mean survival time, dose: 750.0 micrograms/kg/injection, schedule: Q01DX009 (ip), vehicle: saline 100 % of control | endpoint: mean survival time, dose: 1500.0 micrograms/kg/injection, schedule: Q01DX009 (ip), vehicle: saline 96 % of control

CN1C(=O)C2C3CCC(C)(O3)C2C1=O (centres undefined)
inactive: [1] 98 % of control | [2] 96 % of control | [3] 98 % of control

CCOC(=O)CC/C=C/Cc1c(OC)c(C)c2c(c1OC(=O)NCc1ccc(N(CC)CC)cc1)C(=O)OC2
inactive: [4] 112 % of control

O=C1C=CC(=O)N1c1ccc(F)cc1 (tested in a mixture with another compound)
inactive: [5] 96 % of control | [6] 91 % of control | [7] 86 % of control

CN(C)c1ccc(C(=N)c2ccc(N(C)C)cc2)cc1 (tested in a mixture with another compound)
inactive: endpoint: mean survival time, dose: 12.5 mg/kg/injection, schedule: Q01DX009 (ip), vehicle: saline with Tween-80 98 % of control | [5] 93 % of control

CCOC(=O)C1CC2(CC(C)C1=O)OCCO2 (centres undefined)
inactive: endpoint: mean survival time, dose: 100.0 mg/kg/injection, schedule: Q04DX003 (ip), vehicle: alcohol 97 % of control | endpoint: mean survival time, dose: 200.0 mg/kg/injection, schedule: Q04DX003 (ip), vehicle: alcohol 97 % of control | endpoint: mean survival time, dose: 400.0 mg/kg/injection, schedule: Q04DX003 (ip), vehicle: alcohol 92 % of control

Cc1cc(C)c(NC(=O)/C=C/c2ccccc2)c(C)c1
inactive: [4] 96 % of control | endpoint: mean survival time, dose: 200.0 mg/kg/injection, schedule: Q04DX002 (ip), vehicle: saline with Tween-80 89 % of control | endpoint: mean survival time, dose: 400.0 mg/kg/injection, schedule: Q04DX002 (ip), vehicle: saline with Tween-80 96 % of control

O=C1C=CC(=O)N1c1ccc(Cl)cc1 (tested in a mixture with another compound)
inactive: [6] 93 % of control | [7] 87 % of control | [8] 98 % of control

Nc1cccc(NC=O)c1
inactive: endpoint: mean survival time, dose: 100.0 mg/kg/injection, schedule: Q04DX003 (ip), vehicle: Klucel (hydroxypropylcellulose) (HPC) 102 % of control

CC(C)C(C=O)C(O)(C(F)(F)F)C(F)(F)Cl (centres undefined)
inactive: [1] 91 % of control

O=C(Nc1ccc(Cl)cc1)OCCN1CCOCC1
inactive: [6] 90 % of control | [1] 93 % of control | [7] 92 % of control | [2] 94 % of control | [8] 91 % of control | [3] 89 % of control

O=C(O)C(O)C(O)C1[O][Sb][O]C1C(=O)O (centres undefined)
inactive: endpoint: median survival time, dose: 6.25 mg/kg/injection, schedule: Q01DX009 (ip), vehicle: saline 93 % of control | endpoint: median survival time, dose: 12.5 mg/kg/injection, schedule: Q01DX009 (ip), vehicle: saline 102 % of control | endpoint: median survival time, dose: 25.0 mg/kg/injection, schedule: Q01DX009 (ip), vehicle: saline 95 % of control | endpoint: median survival time, dose: 50.0 mg/kg/injection, schedule: Q01DX009 (ip), vehicle: saline 98 % of control

O=C1C=CC(c2ccccc2)(c2ccccc2)C=C1
inactive: [9] 93 % of control | [10] 86 % of control

O=C(O)C1CC[N-]CC1.O=C(O)C1CC[N-]CC1.O=C(O)C1CC[N-]CC1.O=C(O)C1CC[N-]CC1.[Cl][Rh][Cl]
inactive: endpoint: mean survival time, dose: 66.0 mg/kg/injection, schedule: Q01DX009 (ip), vehicle: saline 112 % of control | endpoint: mean survival time, dose: 100.0 mg/kg/injection, schedule: Q01DX009 (ip), vehicle: saline 110 % of control

CC1(c2ccc(O)cc2)OCCCC1([NH-])C[NH-].[Cl][Pt+2][Cl] (centres undefined)
inactive: endpoint: median survival time, dose: 10.0 mg/kg/injection, schedule: Q04DX003 (ip), vehicle: saline 110 % of control | endpoint: median survival time, dose: 20.0 mg/kg/injection, schedule: Q04DX003 (ip), vehicle: saline 106 % of control | endpoint: median survival time, dose: 40.0 mg/kg/injection, schedule: Q04DX003 (ip), vehicle: saline 100 % of control | endpoint: median survival time, dose: 80.0 mg/kg/injection, schedule: Q04DX003 (ip), vehicle: saline with Tween-80 107 % of control | endpoint: median survival time, dose: 80.0 mg/kg/injection, schedule: Q04DX003 (ip), vehicle: saline 103 % of control | endpoint: median survival time, dose: 160.0 mg/kg/injection, schedule: Q04DX003 (ip), vehicle: saline with Tween-80 107 % of control | endpoint: median survival time, dose: 320.0 mg/kg/injection, schedule: Q04DX003 (ip), vehicle: saline with Tween-80 107 % of control

CC(OC(=O)c1ccccc1)c1ccccc1 (centres undefined)
inactive: [6] 95 % of control | [1] 96 % of control | [7] 105 % of control | [2] 105 % of control | [8] 112 % of control | [3] 94 % of control

c1ccc(-c2nnnn2-c2ccccc2)cc1
inactive: endpoint: mean survival time, dose: 100.0 mg/kg/injection, schedule: Q04DX003 (ip), vehicle: saline 101 % of control | endpoint: mean survival time, dose: 200.0 mg/kg/injection, schedule: Q04DX003 (ip), vehicle: saline 98 % of control | endpoint: mean survival time, dose: 400.0 mg/kg/injection, schedule: Q04DX003 (ip), vehicle: saline 104 % of control

O=C(NC1CCCC2CCCCC21)c1ccccc1 (centres undefined)
inactive: [9] 90 % of control | [11] 88 % of control | [10] 90 % of control

O=S(=O)(Nc1ccc2c3c(cccc13)CC2)c1ccccc1
inactive: [1] 96 % of control | [2] 96 % of control | [3] 98 % of control

CCC(=O)OCCNc1cc(C(N)=O)c([N+](=O)[O-])cc1[N+](=O)[O-]
inactive: [9] 105 % of control | [11] 92 % of control | [10] 97 % of control

CO[C@@]12[C@@H]3N[C@@H]3CN1C1=C(C(=O)C(NCCN3CCCC3)=C(C)C1=O)[C@@H]2COC(N)=O
inactive: endpoint: mean survival time, dose: 0.31 mg/kg/injection, schedule: Q01DX005 (ip), vehicle: water 101 % of control | endpoint: mean survival time, dose: 0.62 mg/kg/injection, schedule: Q01DX005 (ip), vehicle: water 101 % of control | endpoint: mean survival time, dose: 1.25 mg/kg/injection, schedule: Q01DX005 (ip), vehicle: water 113 % of control | endpoint: mean survival time, dose: 1.5 mg/kg/injection, schedule: Q01DX001 (ip), vehicle: water 100 % of control | endpoint: mean survival time, dose: 2.5 mg/kg/injection, schedule: Q01DX005 (ip), vehicle: water 120 % of control and 122 % of control | endpoint: mean survival time, dose: 3.0 mg/kg/injection, schedule: Q01DX001 (ip), vehicle: water 94 % of control | endpoint: mean survival time, dose: 6.0 mg/kg/injection, schedule: Q01DX001 (ip), vehicle: water 115 % of control | endpoint: mean survival time, dose: 12.0 mg/kg/injection, schedule: Q01DX001 (ip), vehicle: water 103 % of control

O=C1CC(c2ccc(Br)cc2)N(c2ccc([As](=O)(O)O)cc2)C1=O (centres undefined)
inactive: endpoint: mean survival time, dose: 6.25 mg/kg/injection, schedule: Q01DX009 (ip), vehicle: Klucel (hydroxypropylcellulose) (HPC) 95 % of control | endpoint: mean survival time, dose: 12.5 mg/kg/injection, schedule: Q01DX009 (ip), vehicle: Klucel (hydroxypropylcellulose) (HPC) 89 % of control | endpoint: median survival time, dose: 6.25 mg/kg/injection, schedule: Q04DX003 (ip), vehicle: saline with Tween-80 100 % of control | endpoint: median survival time, dose: 12.5 mg/kg/injection, schedule: Q04DX003 (ip), vehicle: saline with Tween-80 106 % of control | endpoint: median survival time, dose: 25.0 mg/kg/injection, schedule: Q04DX003 (ip), vehicle: saline with Tween-80 100 % of control

Cc1cc[n+](-c2c3c(nc4ccccc24)-c2ccccc2C(C)(C)C3)cc1
inactive: endpoint: mean survival time, dose: 25.0 mg/kg/injection, schedule: Q04DX003 (ip), vehicle: saline sonified 96 % of control | endpoint: mean survival time, dose: 50.0 mg/kg/injection, schedule: Q04DX003 (ip), vehicle: saline sonified 102 % of control | [9] 96 % of control

CCOC(=O)C(C#N)(CCC#N)CCC#N
inactive: [6] 94 % of control | [1] 100 % of control | [7] 98 % of control | [2] 102 % of control | [8] 94 % of control | [3] 100 % of control

O=CNO
inactive: [9] 108 % of control | [11] 104 % of control | [10] 104 % of control

COC1OC(CO)C(OC(=O)Nc2ccccc2)C(OC(=O)Nc2ccccc2)C1O (centres undefined)
inactive: [9] 87 % of control | [10] 95 % of control
